We go through 3 molecules from patent US20170095502A1, “Antimicrobial Metal-Binding Polymers” (priority 2015, published 2017).

The subject of one assay is Acinetobacter baumannii. Description: inhibitory concentrations in hospital-acquired clinical wound isolates.
In another assay the test system is Yersinia pestis (plague). It counts as cell-based.
The subject of the next assay is Staphylococcus aureus. Description: inhibitory concentrations in hospital-acquired clinical wound isolates.
Another assay deals with Enterococcus faecium. The description is as above.
Another assay concerns Pseudomonas aeruginosa. The description is as above.
Assay [1] concerns methicillin-resistant Staphylococcus aureus. Description: checkerboard assay, MIC. The note with it: MRSA.
Assay [2] relates to Vancomycin-resistant Staphylococcus aureus (VRSA). Briefly: inhibitory concentrations against drug-resistant bacteria (potentiation of vancomycin). Conditions: at 16 ug/ml vancomycin.
Assay [3] concerns Burkholderia pseudomallei (melioidosis). Format: cell-based.
The test system of assay [4] is vancomycin-resistant Enterococcus faecalis. Description: checkerboard assay, MIC. The note with it: VRE.
A further assay has as its system S. aureus BAA-44. Description: MIC alone or in combination with tetracycline. Conditions: for MIC: Staphylococcus aureus, BAA44.
The test system of assay [5] is Bacillus anthracis (anthrax). It counts as cell-based.
In assay [6] the test system is Vancomycin-resistant Enterococcus faecium (VRE). Briefly: inhibitory concentrations against drug-resistant bacteria (potentiation of vancomycin). Conditions: at 16 μg/ml vancomycin.
Assay [7] concerns Methicillin-resistant Staphylococcus aureus (MRSA). Description: inhibitory concentrations against drug-resistant bacteria (potentiation of methicillin). The note with it: at 4 ug/ml methicillin.
A further assay deals with Candida albicans. Briefly: inhibitory concentrations in hospital-acquired clinical wound isolates.
Assay [8] relates to Francisella tularensis (rabbit fever). Format: cell-based.

`S=C(S)N1CCCC1` [PDTC, pyrrolidine dithiocarbamate]: the Inhibitory concentration in the assay on Acinetobacter baumannii (clinical isolate 6043) amounted to 100 µg/mL; in the assay on Acinetobacter baumannii (clinical isolate 6063), 100 µg/mL; in the assay on Acinetobacter baumannii (clinical isolate 6175) it was 100 µg/mL; with Acinetobacter baumannii (clinical isolate 6272) it was 100 µg/mL; with Acinetobacter baumannii (clinical isolate 6838) it was 100 µg/mL; in the assay with Staphylococcus aureus (clinical isolate 6061) it was 25 µg/mL. For the same molecule, the Inhibitory concentration in the assay on Staphylococcus aureus (clinical isolate 6108) is 12.5 µg/mL; with Staphylococcus aureus (clinical isolate B-313), 25 µg/mL; in the assay with Staphylococcus aureus (clinical isolate B-767) it was 50 µg/mL; in the assay on Staphylococcus aureus (clinical isolate B-14358), 50 µg/mL; in the assay with Enterococcus faecium (clinical isolate 6080), 50 µg/mL; in the assay on Enterococcus faecium (clinical isolate 6246) it was 50 µg/mL. Besides, the Inhibitory concentration in the assay with Enterococcus faecium (clinical isolate 6831) is 50 µg/mL; in the assay with Pseudomonas aeruginosa (clinical isolate 5983), 100 µg/mL; in the assay with Pseudomonas aeruginosa (clinical isolate 6162) it was 100 µg/mL; with Pseudomonas aeruginosa (clinical isolate 6186), 100 µg/mL; in the assay on Pseudomonas aeruginosa (clinical isolate 6295) it was 100 µg/mL; with Pseudomonas aeruginosa (clinical isolate 6311), 100 µg/mL. The Inhibitory concentration in [2] (clinical isolate VRS 1) was 13 µg/mL; in assay [2] (clinical isolate VRS 9), 13 µg/mL; in assay [2] (clinical isolate VRS 116) it was 13 µg/mL; in [6] (clinical isolate 6098), 50 µg/mL; in [6] (clinical isolate 6185), 50 µg/mL; in assay [6] (clinical isolate 6591) it was 50 µg/mL. In addition, the Inhibitory concentration in assay [7] (clinical isolate 6006) is 25 µg/mL; in [7] (clinical isolate 6051), 13 µg/mL; in assay [7] (clinical isolate 6544), 13 µg/mL; in [7] (clinical isolate 6605), 13 µg/mL; in assay [7] (clinical isolate 6607) it was 13 µg/mL; in the assay with Candida albicans (clinical isolate Y-236), 12.5 µg/mL. In addition, the Inhibitory concentration stood at 12.5 µg/mL in the assay with Candida albicans (clinical isolate Y-477), 12.5 µg/mL with Candida albicans (clinical isolate Y-6359), 12.5 µg/mL in the assay on Candida albicans (clinical isolate Y-12983) and 6.25 µg/mL in the assay with Candida albicans (clinical isolate Y-27022). Also, the activity against biothreats entry (with Yersinia pestis (plague); in assay [3]; in assay [5]; in [8]) was “active” in each case. Besides, the values for the MIC (in [1]; in [4]; in the assay with S. aureus BAA-44) were 62.5 µg/mL, 62.5 µg/mL and 9 µg/mL, respectively. For the same molecule, the “effect of PDTC and tetracycline (FIG. 1)” value with S. aureus BAA-44 (combination with tetracycline) is “synergistic effect”.

Take `CN(C)[C@@H]1C(O)=C(C(N)=O)C(=O)[C@@]2(O)C(O)=C3C(=O)c4c(O)cccc4[C@@](C)(O)[C@H]3C[C@@H]12` [TET, tetracycline, reference compound]: the minimal inhibitory concentration (MIC) – broadly, the smallest concentration in the dilution series that meets the test's criterion for growth inhibition – with S. aureus BAA-44 was found to be 32 µg/mL.

As to `COc1ccc2cc3[n+](cc2c1OC)CCc1cc2c(cc1-3)OCO2` [Berberine, berberine, reference compound], the minimum inhibitory concentration (MIC) in [1] and in [4] was 500 µg/mL in each case.
